# Results taken from patent publication US20190328691A1, “ANTIBIOTIC THERAPY” (Boulos & Cooper Pharmaceuticals Pty Ltd, priority 2015, published 2019).
# Where two headings read alike, the source gives them in different places.
# Experiments:
# [1] = tested on: Staphylococcus aureus (ATCC 29213); test: Checkerboard combination / MIC assay with S. aureus ATCC 29213; assay type: cell-based; conditions: S. aureus ATCC 29213; for MIC: Staphylococcus aureus, read-out: MIC of antibiotic alone
# Summary of the method: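 CLSI broth microdilution checkerboard in CAMHB, final inoculum 5×10^5 CFU/mL, 2% DMSO. Ramizol or Chlopam (11-point 2-fold) crossed with commercial antibiotics (7-point), each starting at 4× MIC; synergy assessed by FIC index (sum of MIC-in-combination/MIC-alone ratios; ≤0.5 synergy, >4 antagonism).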
# [2] = tested on: Staphylococcus aureus (BAA-1717); test: Checkerboard combination / MIC assay with S. aureus BAA-1717 (MRSA); assay type: cell-based; conditions: for Effect of individual antibiotic combinations: S. aureus BAA-1717
# Summary of the method: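 CLSI broth microdilution checkerboard in CAMHB (5×10^5 CFU/mL, 2% DMSO final). Ramizol or Chlopam was tested in 11-point two-fold series against 7-point antibiotic titrations, starting at 4× MIC.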
smiles,measurement,setting,value
C/C(=C\C(=O)OCCCCCCCCC(=O)O)C[C@@H]1OC[C@H](C[C@@H]2O[C@H]2[C@@H](C)[C@H](C)O)[C@@H](O)[C@H]1O [Mupirocin],FICI of combination with Chlopam,[1]; Chlopam 0.003906 μg/mL + labelled antibiotic at MIC of same cell,1.0
same,MIC of antibiotic in combination with Chlopam,[1]; Chlopam 0.003906 μg/mL,0.5 µg/mL
same,FICI of combination with Chlopam,[1]; Chlopam 0.0078125 μg/mL + labelled antibiotic at MIC of same cell,1.0
same,MIC of antibiotic in combination with Chlopam,[1]; Chlopam 0.0078125 μg/mL,0.5 µg/mL
same,FICI of combination with Chlopam,[1]; Chlopam 0.015625 μg/mL + labelled antibiotic at MIC of same cell,1.0
same,MIC of antibiotic in combination with Chlopam,[1]; Chlopam 0.015625 μg/mL,0.5 µg/mL
same,FICI of combination with Chlopam,[1]; Chlopam 0.25 μg/mL + labelled antibiotic at MIC of same cell,1.0
same,MIC of antibiotic in combination with Chlopam,[1]; Chlopam 0.25 μg/mL,0.25 µg/mL
same,Effect of individual antibiotic combinations,"[1]; Chlopam and mupirocin: 0.003901 and 0.5, 0.0078125 and 0.5, 0.015625 and 0.5, 0.25 and 0.25 μg/mL",additive effect
same,FICI of combination with Ramizol,[1]; Ramizol 0.015625 μg/mL + labelled antibiotic at MIC of same cell,1.0
same,MIC of antibiotic in combination with Ramizol,[1]; Ramizol 0.015625 μg/mL,0.5 µg/mL
same,FICI of combination with Ramizol,[1]; Ramizol 0.03125 μg/mL + labelled antibiotic at MIC of same cell,1.0
same,MIC of antibiotic in combination with Ramizol,[1]; Ramizol 0.03125 μg/mL,0.5 µg/mL
same,FICI of combination with Ramizol,[1]; Ramizol 0.0625 μg/mL + labelled antibiotic at MIC of same cell,1.0
same,MIC of antibiotic in combination with Ramizol,[1]; Ramizol 0.0625 μg/mL,0.5 µg/mL
same,FICI of combination with Ramizol,[1]; Ramizol 0.125 μg/mL + labelled antibiotic at MIC of same cell,1.0
same,MIC of antibiotic in combination with Ramizol,[1]; Ramizol 0.125 μg/mL,0.5 µg/mL
same,FICI of combination with Ramizol,[1]; Ramizol 0.25 μg/mL + labelled antibiotic at MIC of same cell,1.0
same,MIC of antibiotic in combination with Ramizol,[1]; Ramizol 0.25 μg/mL,0.5 µg/mL
same,Effect of individual antibiotic combinations,"[1]; Ramizol and mupirocin: 0.015625 and 0.5, 0.03125 and 0.5, 0.0625 and 0.5, 0.125 and 0.5, 0.25 and 0.5 μg/mL",additive effect
same,MIC,"[1]; ATCC29213, Table 4, checkerboard series with Chlopam",0.5 µg/mL
same,MIC,"[1]; ATCC29213, Table 7, checkerboard series with Ramizol",0.5 µg/mL
same,mean FICI of combination with Chlopam,"[1]; labelled antibiotic + Chlopam, mean of all pairwise combinations",1.1
same,mean FICI of combination with Ramizol,"[1]; labelled antibiotic + Ramizol, mean of all pairwise combinations",1.1
same,FICI of combination with Chlopam,"[2]; Chlopam 0.001953 μg/mL + labelled antibiotic at MIC of same cell, S. aureus ATCC BAA-1717",1.0
same,MIC of antibiotic in combination with Chlopam,"[2]; Chlopam 0.001953 μg/mL, S. aureus ATCC BAA-1717",0.5 µg/mL
same,FICI of combination with Chlopam,"[2]; Chlopam 0.003906 μg/mL + labelled antibiotic at MIC of same cell, S. aureus ATCC BAA-1717",1.0
same,MIC of antibiotic in combination with Chlopam,"[2]; Chlopam 0.003906 μg/mL, S. aureus ATCC BAA-1717",0.5 µg/mL
same,FICI of combination with Chlopam,"[2]; Chlopam 0.0078125 μg/mL + labelled antibiotic at MIC of same cell, S. aureus ATCC BAA-1717",1.0
same,MIC of antibiotic in combination with Chlopam,"[2]; Chlopam 0.0078125 μg/mL, S. aureus ATCC BAA-1717",0.5 µg/mL
same,FICI of combination with Chlopam,"[2]; Chlopam 0.015625 μg/mL + labelled antibiotic at MIC of same cell, S. aureus ATCC BAA-1717",1.0
same,MIC of antibiotic in combination with Chlopam,"[2]; Chlopam 0.015625 μg/mL, S. aureus ATCC BAA-1717",0.5 µg/mL
same,FICI of combination with Chlopam,"[2]; Chlopam 0.5 μg/mL + labelled antibiotic at MIC of same line, S. aureus ATCC BAA-1717",1.0
same,MIC of antibiotic in combination with Chlopam,"[2]; Chlopam 0.5 μg/mL, S. aureus ATCC BAA-1717",0.016 µg/mL
same,Effect of individual antibiotic combinations,"[2]; Chlopam and mupirocin: 0.001953 and 0.5, 0.003901 and 0.5, 0.0078125 and 0.5, 0.015625 and 0.5, 0.5 and 0.016 μg/mL",additive effect
same,FICI of combination with Ramizol,"[2]; Ramizol 0.015625 μg/mL + labelled antibiotic at MIC of same cell, S. aureus ATCC BAA-1717",1.0
same,MIC of antibiotic in combination with Ramizol,"[2]; Ramizol 0.015625 μg/mL, S. aureus ATCC BAA-1717",0.5 µg/mL
same,FICI of combination with Ramizol,"[2]; Ramizol 0.03125 μg/mL + labelled antibiotic at MIC of same cell, S. aureus ATCC BAA-1717",1.0
same,MIC of antibiotic in combination with Ramizol,"[2]; Ramizol 0.03125 μg/mL, S. aureus ATCC BAA-1717",0.5 µg/mL
same,FICI of combination with Ramizol,"[2]; Ramizol 0.0625 μg/mL + labelled antibiotic at MIC of same cell, S. aureus ATCC BAA-1717",1.0
same,MIC of antibiotic in combination with Ramizol,"[2]; Ramizol 0.0625 μg/mL, S. aureus ATCC BAA-1717",0.5 µg/mL
same,FICI of combination with Ramizol,"[2]; Ramizol 0.125 μg/mL + labelled antibiotic at MIC of same line, S. aureus ATCC BAA-1717",1.0
same,MIC of antibiotic in combination with Ramizol,"[2]; Ramizol 0.125 μg/mL, S. aureus ATCC BAA-1717",0.5 µg/mL
same,FICI of combination with Ramizol,"[2]; Ramizol 4 μg/mL + labelled antibiotic at MIC of same cell, S. aureus ATCC BAA-1717",1.0
same,MIC of antibiotic in combination with Ramizol,"[2]; Ramizol 4 μg/mL, S. aureus ATCC BAA-1717",0.016 µg/mL
same,Effect of individual antibiotic combinations,"[2]; Ramizol and mupirocin: 0.015625 and 0.5, 0.03125 and 0.5, 0.0625 and 0.5, 0.125 and 0.5, 4 and 0.016 μg/mL",additive effect
same,MIC,"[2]; Staphylococcus aureus, ATCC BAA-1717 / BAA-1717, Table 4, checkerboard series with Chlopam, S. aureus ATCC BAA-1717, read-out: MIC of antibiotic alone",0.5 µg/mL
same,mean FICI of combination with Chlopam,"[2]; labelled antibiotic + Chlopam, mean of all pairwise combinations, S. aureus ATCC BAA-1717",1.2
same,mean FICI of combination with Ramizol,"[2]; labelled antibiotic + Ramizol, mean of all pairwise combinations, S. aureus ATCC BAA-1717",(1.2)
